Results on 21 molecules are retold here after US7329518B2, “Enzyme for producing optically active pyridineethanol derivatives” (Kaneka Corporation, priority 1999, dated 2008).

Holding throughout (assay type): biochemical, Candida maris IFO 10003
The test system of series [1] is FPDH. Briefly: Oxidation activity of FPDH against various compounds as substrates. The note with it: substrate 1 mM; 5-(1-(R)-hydroxyethyl)furo[2,3-c]pyridine = 100%; 0.25 mM NAD+, pH 8.0, 30° C. How it is done: Further, FPDH was examined for oxidation activity against various compounds. The oxidation activity was measured by allowing the reaction to proceed at 30° C. for 3 minutes in 3.0 ml of a reaction mixture containing 1 mM substrate, 0.25 mM NAD^+, 0.3% (vol/vol) dimethyl sulfoxide and 0.05 ml of the enzyme solution in 100 mM phosphate buffer (pH 8.0) and measuring the increase in absorbance at the wavelength 340 nm. These conditions were employed as standard reaction conditions for oxidizing activity substrate measurement. The enzyme activity reducing 1 μmole of NAD^+ to NADH in one minute under these reaction conditions was defined as 1 unit. The data shown in Table 10 are relative activities with the oxidation activity against the substrate 5-(1-(R)-hydroxyethyl)furo[2,3-c]pyridine being taken as 100%.

For series [2], the system named is FPDH. Briefly: Behaviors of FPDH against inhibitors (reducing activity measurement with added compounds and metal salts).
Series [3] relates to FPDH. Briefly: Optimal temperature and optimal pH for the activity of FPDH. The note with it: pH varied 3.5 to 9.0; acetate, phosphate and Tris-hydrochloride buffer. As to the method:
Hereafter, the reducing activity was measured by allowing the reaction to proceed at 30° C. for 3 minutes in 3.0 ml of a reaction mixture containing 1 mM 5-acetylfuro[2,3-c]pyridine (substrate), 0.25 mM NADH, 0.3% (vol/vol) dimethyl sulfoxide and 0.05 ml of the enzyme solution in 100 mM phosphate buffer (pH 6.5) and measuring the decrease in absorbance at the wavelength 340 nm. These conditions were employed as standard reaction conditions for reducing activity measurement. The enzyme activity oxidizing 1 μmole of NADH to NAD^+ in one minute under these reaction conditions was defined as 1 unit.
Activity measurements were conducted under the standard reaction conditions for reducing activity measurement as described in Example 14 except that the temperature alone was varied from 20 to 80° C.
Activity measurements were conducted under the standard reaction conditions for reducing activity measurement as described in Example 14 while varying the pH within the range of 3.5 to 9.0 using acetate buffer, phosphate buffer and Tris-hydrochloride buffer as the buffer solution.

Setting [4] is: inhibitor 0.01 mM, activity without inhibitor = 100%, 1 mM 5-acetylfuro[2,3-c]pyridine, 0.25 mM NADH, pH 6.5, 30° C.
Setting [5] is: inhibitor 1.0 mM, activity without inhibitor = 100%, 1 mM 5-acetylfuro[2,3-c]pyridine, 0.25 mM NADH, pH 6.5, 30° C.

As to `CC(O)c1ccccn1` (stereo not drawn) [1-(2-Pyridyl)ethanol], the “Relative activity (oxidation activity)” value in the series on FPDH [1] came out at 23%.
The same measure, in the same setting: next, `CC(O)c1cccnc1` (stereo not drawn) [1-(3-Pyridyl)ethanol]: 110%; `CC(O)c1ccncc1` (stereo not drawn) [1-(4-Pyridyl)ethanol]: 24%; `C=CC(C)O` (stereo not drawn) [1-Buten-3-ol]: 261%.
On to `C=CCC(C)O` (stereo not drawn) [4-Penten-2-ol], for which the “Relative activity (oxidation activity)” value in the series on FPDH [1] amounted to 172%.
Take `CC(O)CCc1ccccc1` (stereo not drawn) [4-Phenyl-2-butanol]: in the series on FPDH [1], the “Relative activity (oxidation activity)” value amounted to 219%.
As for `C[C@@H](O)c1ccccc1` [(R)-1-Phenylethanol], the “Relative activity (oxidation activity)” value in the series with FPDH [1] worked out at 225%.
For the molecule `C[C@@H](O)c1cc2ccoc2cn1` [(R)-5-(1-Hydroxyethyl)furo[2,3-c]pyridine], in the series on FPDH [1], the “Relative activity (oxidation activity)” value came to 100%.
For `O=C(O)c1cc(SSc2ccc([N+](=O)[O-])c(C(=O)O)c2)ccc1[N+](=O)[O-]` [DTNB], the Relative activity in the series with FPDH [2] (setting [4]) turned out to be 98%.
Take `O=C(O)CN(CCN(CC(=O)O)CC(=O)O)CC(=O)O` [EDTA]: in the series with FPDH [2] (setting [5]), the Relative activity was determined as 98%.
The same measure, in the same setting: the same measure for `[Cl][Hg][Cl]` [HgCl2]: 0%.
In the case of `O=C(O)CI` [Iodoacetic acid], in the series with FPDH [2] (pH 6.5), the Relative activity is recorded as 80%.
As for `CC(C)O` [Isopropanol], the “Relative activity (oxidation activity)” value in the series on FPDH [1] came out at 226%.
For the molecule `O=S(=O)([O-])[O-].[Mg+2]` [MgSO4], the Relative activity with FPDH [2] (setting [5]) is reported as 81%.
On to `[Cl][Mn][Cl]` [MnCl2], for which the Relative activity with FPDH [2] (setting [5]) is 76%.
On the same count and under the same terms, the same measure for `CCN1C(=O)C=CC1=O` [N-ethylmaleimide]: 84%.
Take `O=c1c(O)c(-c2ccc(O)c(O)c2)oc2cc(O)cc(O)c12` [Quercetin]: the Relative activity with FPDH [2] (setting [4]) was determined as 78%.
`O=S(=O)([O-])[O-].[Zn+2]` [ZnSO4]: the Relative activity in the series on FPDH [2] (setting [5]) worked out at 74%.
`[Hg+2]` [mercury ion]: in the series with FPDH [2] (standard reaction conditions for reducing activity measurement), the “Inhibition of the enzyme activity (in words)” value is “inhibited”.
Take `O=C(O)c1cc[c]([Hg][Cl])cc1` [p-Chloromercuribenzoic acid]: the Relative activity in the series with FPDH [2] (inhibitor 0.1 mM, activity without inhibitor = 100%, 1 mM 5-acetylfuro[2,3-c]pyridine, 0.25 mM NADH, pH 6.5, 30° C.) stood at 100%.

B1: FPDH: purified NADH-dependent enzyme from Candida maris IFO 10003 reducing 5-acetylfuro[2,3-c]pyridine to the (R)-alcohol; SEQ ID NO:1 (protein, listed as Candida maris)
chain: MSYNFANKVLIVTGGLSGIGLAVAKKFLQLGAKVTISDISATEKYNTVVGEFKTEGIDVKNVQYIQADASKEADNEKLISETLSAFGDLDYVCANAGIATFTQTTDISYDVWRKVTSINLDGVFMLDKLAAQYFLSKNKPGAIVNMGSIHSYVAAPGLSHYGAAKGGLKLLTQTMALEYAAKGIRVNSVNPGYIKTPLLDICPKEHMDYLITQHPIGRLGKPEEIASAVAFLCSDEATFINGISLLVDGGYTAR
B1: the “Optimal pH” value with FPDH [3] is 5.0-6.0.
